Measured values from patent US20240252490A1, “Combination Therapies Comprising Kras Inhibitors and SPH2 Inhibitors” (HUYABIO International, LLC, priority 2022, published 2024).
“And” between values parts separate entries of the source, which are not always exact repeats. Equal entries are not always repeated. Where two headings read alike, the source gives them in different places.

Tests used:
[1] = test system: colorectal cancer xenograft model CR2528; test: in vivo therapeutic efficacy, subcutaneous HuPrime colorectal cancer xenograft model (tumor volume); parameters: species or system female BALB/c Nude mice; conditions: Day 20
Procedure: The above test articles were administered as single agent or in specific combination settings as described in Table 4. […] HBI-2438 and HBI-2376 (the compound of Formula Ia and the compound of Formula IIa, respectively) were supplied by Huyabio International, LLC.
(c) Tumor Inoculation: Tumor fragments from stock mice were harvested and used for inoculation into mice. Each mouse was inoculated subcutaneously in the right flank with CR2528 model tumor fragment (2-3 mm in diameter) for tumor development on May 25, 2022.
(d) Randomization: The randomization started when the mean tumor size reached 160 mm^3. 99 mice were enrolled in the study. All animals were randomly allocated to 11 study groups, 9 mice in each group. Randomization was performed based on “Matched distribution” method/“Stratified” method (StudyDirector™ software, version 3.1.399.19)/randomized block design. The date of randomization was denoted as day 0 (Jun. 13, 2022).
(§1) Tumor volumes were measured twice per week after randomization in two dimensions using a caliper, and the volume was expressed in mm^3 using the formula: “V=(L×W×W)/2, where V is tumor volume, L is tumor length (the longest tumor dimension) and W is tumor width (the longest tumor dimension perpendicular to L). Dosing as well as tumor and body weight measurements were conducted in a Laminar Flow Cabinet. The body weights and tumor volumes were measured by using StudyDirector™ software (version 3.1.399.19).
The treatments on both primary and secondary studies were performed for 3 weeks. The primary study was terminated on Day 21 with plasma and tumor samples collection. For secondary analysis tumor samples were collected after the final dose and were transferred in a sterile tube, to be frozen into liquid nitrogen. All the frozen tumor samples were stored in −80° C.

[2] = test system: NCI-H1373-luc ICA tumor model; test: in vivo anti-tumor efficacy, intra-carotid artery metastatic brain tumor model (bioluminescence); parameters: species or system Nu/Nu mice; conditions: for T/C / TGI: day 21, from log 10 Bioluminescence
Text: The objective of this Example is to evaluate the in vivo anti-tumor efficacy of AMG510 (positive control KRAS G12C inhibitor), MRTX 849 (positive control KRAS G12C inhibitor) and HBI-2438 (a KRAS G12C inhibitor of the invention) in NCH-H1373-luc ICA, an intra-carotid artery metastatic brain tumor model, in Nu/Nu mice. HBI-2438 (the compound of Formula Ia) was supplied by Huyabio International, LLC. This intra-carotid artery model is well recognized in the art for evaluating the ability of a target compound to treat metastatic brain tumor.
All the procedures related to animal handling, care and the treatment in the study were performed according to the guidelines approved by the Institutional Animal Care and Use Committee (IACUC) of WuXi AppTec, following the guidance of the Association for Assessment and Accreditation of Laboratory Animal Care (AAALAC). At the time of routine monitoring, the animals were checked daily for tumor growth and any effects of treatments on normal behavior such as mobility, food and water consumption (by looking only), body weight gain/loss (body weights were measured twice per week), eye/hair matting and any other abnormal effect as stated in the protocol. Death and observed clinical signs were recorded on the basis of the numbers of animals within each subset.
Methods: The NCI-H1373-luc tumor cells were maintained in medium supplemented with 10% heat inactivated fetal bovine serum at 37° C. in an atmosphere of 5% CO2 in air. The tumor cells were routinely subcultured twice weekly. The cells growing in an exponential growth phase were harvested and counted for tumor inoculation. Each mouse was inoculated with NCI-H1373-luc tumor cells (0.5×10^5) in 100 μL of PBS. The animals were randomized and treatments were started when the Bioluminescence signal reached 8*10^6. After grouping, the bioluminescence measurements were taken once per week with IVIS (Lumina II).
Each mouse was inoculated with NCI-H1373-luc tumor cells (0.5×10^5) in 100 μL of PBS. The animals were randomized and treatments were started when the Bioluminescence signal reached 8*10^6. After grouping, the bioluminescence measurements were taken once per week with IVIS (Lumina II).
Tumor growth inhibition rate for test articles in the NCI-H1373-luc model was calculated based on log 10 Bioluminescence measurement at day 21 after the start of treatment, as shown in Table 3.

[3] = type: in vivo; conditions: for BW change: Day 20 vs Day 0
Procedure: Observation and Data Collection: After tumor cells inoculation, the animals were checked daily for morbidity and mortality. During routine monitoring, the animals were checked for any effects of tumor growth and treatments on behavior such as mobility, food and water consumption, body weight gain/loss (body weights were measured twice per week after randomization), eye/hair matting and any other abnormalities. Mortality and observed clinical signs were recorded for individual animals in detail.
as §1

[4] = 30 mg/kg PO QD, day 0 after start of treatment

C=C(F)C(=O)N1CCN(c2nc(OC[C@@H]3CCCN3C)nc3c2CCN(c2cccc4cccc(Cl)c24)C3)C[C@@H]1CC#N [MRTX849, reference compound]
T/C ([1]; 100 mg/kg QD): 41.56%
TGI ([1]; 100 mg/kg QD): 58.44%
Tumor Volume (mean ± SEM) ([1]; 100 mg/kg QD): 718.22 ± 151.89 mm^3
log 10 Bioluminescence (mean ± SEM) [2, 4]: 6.83 ± 0.14
log 10 Bioluminescence (mean ± SEM) ([2]; 30 mg/kg PO QD, day 7): 6.38 ± 0.21
log 10 Bioluminescence (mean ± SEM) ([2]; 30 mg/kg PO QD, day 14): 6.24 ± 0.18
log 10 Bioluminescence (mean ± SEM) ([2]; 30 mg/kg PO QD, day 21): 6.01 and 6.01 ± 0.14
T/C ([2]; 30 mg/kg PO QD): 71.3%
TGI ([2]; 30 mg/kg PO QD): 152.6%

C[C@@H]1OCC2(CCN(c3cnc(Sc4cccc(NC(=O)c5c(O)nc6n(c5=O)CCCC6)c4Cl)cn3)CC2)[C@@H]1N [HBI-2376, N-(3-((5-((3S,4S)-4-amino-3-methyl-2-oxa-8-azaspiro[4.5]decan-8-yl)pyrazin-2-yl)thio)-2-chlorophenyl)-2-hydroxy-4-oxo-6,7,8,9-tetrahydro-4H-pyrido[1,2-a]pyrimidine-3-carboxamide]
T/C ([1]; 5 mg/kg QD): 27.18%
TGI ([1]; 5 mg/kg QD): 72.82%
Tumor Volume (mean ± SEM) ([1]; 5 mg/kg QD): 469.69 ± 81.71 mm^3
Day 0 BW (mean ± SEM) ([3]; 5 mg/kg QD): 22.79 ± 0.69
Day 20 BW (mean ± SEM) ([3]; 5 mg/kg QD): 22.03 ± 1.05
BW change ([3]; 5 mg/kg QD): −3.36%
Maximum mean BWL ([3]; 5 mg/kg QD, on Day 20): −3.36% on

C=CC(=O)N1CCN(c2nc(=O)n(-c3c(C)ccnc3C(C)C)c3nc(-c4c(O)cccc4F)c(F)cc23)[C@@H](C)C1 [AMG-510, reference compound]
log 10 Bioluminescence (mean ± SEM) [2, 4]: 6.86 ± 0.09
log 10 Bioluminescence (mean ± SEM) ([2]; 30 mg/kg PO QD, day 7): 6.12 ± 0.06
log 10 Bioluminescence (mean ± SEM) ([2]; 30 mg/kg PO QD, day 14): 6.32 ± 0.25
log 10 Bioluminescence (mean ± SEM) ([2]; 30 mg/kg PO QD, day 21): 6.69 and 6.69 ± 0.3
T/C ([2]; 30 mg/kg PO QD): 79.3%
TGI ([2]; 30 mg/kg PO QD): 111.5%

C[C@@H]1OCC2(CCN(c3cnc(Sc4ccnc(N)c4Cl)c(N)n3)CC2)[C@@H]1N [TNO-155, reference compound]
T/C ([1]; 5 mg/kg QD): 53.02%
TGI ([1]; 5 mg/kg QD): 46.98%
Tumor Volume (mean ± SEM) ([1]; 5 mg/kg QD): 916.21 ± 100.32 mm^3

C=CC(=O)N1C[C@@H]2C(=O)N(CCN(C)C)c3c(c4cc(Cl)c(-c5c(O)cccc5F)nc4n(-c4c(C)ccnc4C(C)C)c3=O)N2C[C@H]1C [HBI-2438]
T/C ([1]; 10 mg/kg QD): 84.37%
TGI ([1]; 10 mg/kg QD): 15.63%
Tumor Volume (mean ± SEM) ([1]; 10 mg/kg QD): 1458.01 ± 164.19 mm^3
T/C ([1]; 30 mg/kg QD): 52.41%
TGI ([1]; 30 mg/kg QD): 47.59%
Tumor Volume (mean ± SEM) ([1]; 30 mg/kg QD): 905.6 ± 108.46 mm^3
T/C ([1]; 100 mg/kg QD): 43.69%
TGI ([1]; 100 mg/kg QD): 56.31%
Tumor Volume (mean ± SEM) ([1]; 100 mg/kg QD): 754.97 ± 98 mm^3
Day 0 BW (mean ± SEM) ([3]; 10 mg/kg QD): 22.32 ± 0.57
Day 20 BW (mean ± SEM) ([3]; 10 mg/kg QD): 22.19 ± 0.81
BW change ([3]; 10 mg/kg QD): −0.62%
Maximum mean BWL ([3]; 10 mg/kg QD, on Day 20): −0.62% on
Maximum mean BWL ([3]; 30 mg/kg QD): No BWL
Day 0 BW (mean ± SEM) ([3]; 30 mg/kg QD): 22.54 ± 0.61
Day 20 BW (mean ± SEM) ([3]; 30 mg/kg QD): 23.89 ± 0.58
BW change ([3]; 30 mg/kg QD): 6.12%
Maximum mean BWL ([3]; 100 mg/kg QD): No BWL
Day 0 BW (mean ± SEM) ([3]; 100 mg/kg QD): 21.91 ± 0.57
Day 20 BW (mean ± SEM) ([3]; 100 mg/kg QD): 22.31 ± 0.71
BW change ([3]; 100 mg/kg QD): 1.86%
log 10 Bioluminescence (mean ± SEM) ([2]; 15 mg/kg PO QD, day 0 after start of treatment): 6.86 ± 0.11
log 10 Bioluminescence (mean ± SEM) ([2]; 15 mg/kg PO QD, day 7): 6.49 ± 0.14
log 10 Bioluminescence (mean ± SEM) ([2]; 15 mg/kg PO QD, day 14): 6.44 ± 0.2
log 10 Bioluminescence (mean ± SEM) ([2]; 15 mg/kg PO QD, day 21): 6.58 and 6.58 ± 0.21
T/C ([2]; 15 mg/kg PO QD): 78.1%
TGI ([2]; 15 mg/kg PO QD): 118.2%
log 10 Bioluminescence (mean ± SEM) [2, 4]: 6.86 ± 0.1
log 10 Bioluminescence (mean ± SEM) ([2]; 30 mg/kg PO QD, day 7): 6.09 ± 0.07
log 10 Bioluminescence (mean ± SEM) ([2]; 30 mg/kg PO QD, day 14): 5.86 ± 0.12
log 10 Bioluminescence (mean ± SEM) ([2]; 30 mg/kg PO QD, day 21): 6.00 and 6.00 ± 0.13
T/C ([2]; 30 mg/kg PO QD): 71.2%
TGI ([2]; 30 mg/kg PO QD): 155.8%
log 10 Bioluminescence (mean ± SEM) ([2]; 100 mg/kg PO QD, day 0 after start of treatment): 6.86 ± 0.11
log 10 Bioluminescence (mean ± SEM) ([2]; 100 mg/kg PO QD, day 7): 5.92 ± 0.09
log 10 Bioluminescence (mean ± SEM) ([2]; 100 mg/kg PO QD, day 14): 6.04 ± 0.2
log 10 Bioluminescence (mean ± SEM) ([2]; 100 mg/kg PO QD, day 21): 6.09 and 6.09 ± 0.24
T/C ([2]; 100 mg/kg PO QD): 72.2%
TGI ([2]; 100 mg/kg PO QD): 150.0%
